# Measurements reported in publication PMC11215771 (Journal of Medicinal Chemistry, 2024).
# Where “and” joins values, the source holds several entries; their conditions need not be identical. Equal values may be shown once.
# What was measured:
# [1] = target: T1, recombinant BACE1 extracellular domain (Homo sapiens, UniProt P56817); test: FRET-based BACE1 inhibition (BACE1-activity FRET) assay; assay type: biochemical
# T1 construct: purchased Thermo Fisher Scientific P2985
# Protocol: In addition, we performed a fluorescence resonance energy transfer (FRET)-based BACE1 inhibition assay using the recombinant BACE1 extracellular domain and a BACE1 substrate coupled to a donor fluorophore, which is unquenched […] to the activity of BACE1. […] (Figure 1F).
# Protease activity was determined using a FRET-based assay with recombinant BACE1 protein (Thermo Fisher Scientific; P2985). BACE1 inhibition was determined in end-points assays according to the manufacturer’s protocol except using a reduced volume of 12 μL in 384-well plates (Greiner, 788896). […] Fluorescence intensities were quantified with an infinite 200pro reader (Tecan) using top-reading mode. Data points were approximated using a logistic fit to determine half-inhibitory concentrations (pIC50).
# [2] = target: T2, hBACE1 D289N (proteolytic inactive mutant) in HEK293T cells (Homo sapiens, UniProt P56817, D289N); test: Staining of transfected HEK293T cells, confocal imaging: BACE1 D289N; assay type: cell-based
# T2 construct: expressed in transfected cells; host or cells: HEK293T
# T2 sequence (P56817 46-501 D289N): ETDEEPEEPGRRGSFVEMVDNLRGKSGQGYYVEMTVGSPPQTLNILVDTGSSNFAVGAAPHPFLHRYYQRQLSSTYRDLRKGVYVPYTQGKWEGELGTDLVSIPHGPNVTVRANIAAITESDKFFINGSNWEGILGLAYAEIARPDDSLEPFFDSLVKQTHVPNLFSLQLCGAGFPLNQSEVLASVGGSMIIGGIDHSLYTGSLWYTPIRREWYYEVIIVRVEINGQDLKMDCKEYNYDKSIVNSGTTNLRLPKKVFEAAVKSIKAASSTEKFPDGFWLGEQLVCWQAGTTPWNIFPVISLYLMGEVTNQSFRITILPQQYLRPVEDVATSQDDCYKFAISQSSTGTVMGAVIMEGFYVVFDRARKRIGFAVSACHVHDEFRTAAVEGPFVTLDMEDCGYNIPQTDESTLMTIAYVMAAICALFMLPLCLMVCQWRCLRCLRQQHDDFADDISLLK
# Protocol: (§1) Next, we explored the performance of the new Alexa-C3 compounds in living cells. Because of the rather hydrophilic properties, we exclusively targeted the cell membrane. To prevent intracellular accumulation, we first performed stainings at 4 °C arresting ATP-dependent endocytosis. […] All of the constructs were tagged at the C-terminus with either EGFP or mCherry to visualize subcellular expression. […] With these experiments, we want to exclude that a lack of staining is caused by an impaired accessibility of the protein by Alexa-C3 compounds. […] We then tested samples with BACE1 expression after fixation of the cells with paraformaldehyde (PFA).
# (§2) (D) All conjugates were also probed on cells fixed with 4% paraformaldehyde (PFA) for 15 min prior to staining. […] Scale bars represent 5 μm (A–D) and 20 μm (E). […] Samples were excited at 488, 561, and 633 nm, respectively.
# HEK293T cells (ATCC accession number CRL-11268) were maintained in Dulbecco's modified Eagle's medium (Sigma-Aldrich D6046) with 1g/L glucose, supplemented with 10% FCS (Merck) and 1% penicillin/streptomycin (PAA). CHO-K1 cells (ATCC #CCL-61) were maintained in modified phenol red free RPMI-1640 medium (Sigma-Aldrich, R7509), supplemented with 2 mM L-glutamine (Sigma-Aldrich, G7513), and 10% FCS (Merck). Cells were cultured at 37 °C in a 5% CO2 atmosphere. The following plasmids were used for transfection with the amount of DNA indicated (per 35 mm Petri dish): hBACE1 (NM_012104.4), 50 ng for single molecule recordings, 200 ng otherwise; hBACE1 fused to EGFP or mCherry, 75 ng; hBACE1 D289N fused to EGFP or mCherry, 75 ng; hBACE1 D289N, 200–400 ng; hBACE2 (NM_012105.3) fused to EGFP, 75 ng; hCathepsinD (HsCD00438327), Harvard PlasmID, 75 ng. Transfection was performed 24 h after plating using jetPEI (Polyplus) according to the manufacturer’s protocol.
# For labeling, we plated HEK293T cells onto sterile 18 mm 1.5H borosilicate coverslips (VWR), coated with poly-D-lysine (Sigma). […]
# [3] = target: BACE-1 (mouse Protein, recombinant) (Mus musculus, UniProt P56818); test: Nanotemper (Monolith NT.115) binding analysis
# Sequence of BACE-1 (mouse Protein, recombinant) (P56818 46-457 limits assumed): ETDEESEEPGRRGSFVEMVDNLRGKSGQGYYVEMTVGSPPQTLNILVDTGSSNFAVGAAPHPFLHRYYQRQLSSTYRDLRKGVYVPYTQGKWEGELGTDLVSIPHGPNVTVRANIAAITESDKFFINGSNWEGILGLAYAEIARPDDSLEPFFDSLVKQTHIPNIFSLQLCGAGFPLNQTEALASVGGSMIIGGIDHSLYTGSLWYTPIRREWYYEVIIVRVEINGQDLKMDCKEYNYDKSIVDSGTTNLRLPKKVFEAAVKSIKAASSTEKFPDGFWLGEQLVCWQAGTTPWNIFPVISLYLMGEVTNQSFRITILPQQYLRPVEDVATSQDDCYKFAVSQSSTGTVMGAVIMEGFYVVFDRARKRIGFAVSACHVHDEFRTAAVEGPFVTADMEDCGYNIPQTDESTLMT
# Protocol: For binding analysis, the Monolith NT.115 (Nanotemper) was used. BACE-1 (mouse Protein, recombinant, life technologies, 50002-M08H-250, LCL10JA2204)) was dissolved in 50 mM HEPES/100 mM NaCl, pH 5 to a concentration of 20 μM. […] Samples were loaded on standard capillaries (Nanotemper, MO-K022) and measured in triplicate at 22 °C, using 1%/60% LED power for Alexa488/Alexa568 and 10% MST power. Fluorescence was plotted against protein concentrations.
# [4] = FCS of free Alexa-C3 in HBS in the absence of BACE1; details: 100 nM in HBS, pH 5, no BACE1, mean ± SD
# [5] = Fluorescence spectroscopy, sensitivity to BSA and Expi293F cells; details: mock Expi293F cells in fluorobrite vs PBS alone
# Protocol: Emission and excitation spectra of all compounds were determined at a concentration of 33 nM in phosphate buffered saline (PBS) using an infinite 200pro (Tecan) with a resolution of 2 nm. […] For sensitivity assessment, we used PBS, PBS + BSA (0.05%), and Expi293F cells in fluorobrite (2 × 10^6 cells/mL).
# [6] = target: T3, hBACE2 fused to EGFP in HEK293T cells (Homo sapiens, UniProt Q9Y5Z0); test: Staining of transfected HEK293T cells, confocal imaging: BACE2; assay type: cell-based
# T3 construct: expressed in transfected cells; host or cells: HEK293T
# T3 sequence (Q9Y5Z0 63-518): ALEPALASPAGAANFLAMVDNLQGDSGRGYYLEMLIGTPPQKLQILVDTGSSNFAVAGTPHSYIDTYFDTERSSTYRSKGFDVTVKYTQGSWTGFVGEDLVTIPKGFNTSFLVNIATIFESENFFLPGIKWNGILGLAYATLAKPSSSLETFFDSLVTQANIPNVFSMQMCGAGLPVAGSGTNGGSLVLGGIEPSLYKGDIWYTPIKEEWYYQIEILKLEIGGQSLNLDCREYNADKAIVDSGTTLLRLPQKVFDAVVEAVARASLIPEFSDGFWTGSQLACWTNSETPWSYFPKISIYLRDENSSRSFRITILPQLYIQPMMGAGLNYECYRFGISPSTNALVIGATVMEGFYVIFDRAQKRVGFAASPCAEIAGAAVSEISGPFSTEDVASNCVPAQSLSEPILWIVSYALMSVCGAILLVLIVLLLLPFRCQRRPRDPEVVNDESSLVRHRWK
# Protocol: as §1, §2
# (§3) HEK293T cells (ATCC accession number CRL-11268) were maintained in Dulbecco's modified Eagle's medium (Sigma-Aldrich D6046) with 1g/L glucose, supplemented with 10% FCS (Merck) and 1% penicillin/streptomycin (PAA). CHO-K1 cells (ATCC #CCL-61) were maintained in modified phenol red free RPMI-1640 medium (Sigma-Aldrich, R7509), supplemented with 2 mM L-glutamine (Sigma-Aldrich, G7513), and 10% FCS (Merck). Cells were cultured at 37 °C in a 5% CO2 atmosphere. […]
# [7] = target: T4, hCathepsinD in HEK293T cells (Homo sapiens, UniProt P07339); test: Staining of transfected HEK293T cells, confocal imaging: Cathepsin D; assay type: cell-based
# T4 construct: EGFP or mCherry (C); host or cells: HEK293T
# T4 sequence (P07339 65-412): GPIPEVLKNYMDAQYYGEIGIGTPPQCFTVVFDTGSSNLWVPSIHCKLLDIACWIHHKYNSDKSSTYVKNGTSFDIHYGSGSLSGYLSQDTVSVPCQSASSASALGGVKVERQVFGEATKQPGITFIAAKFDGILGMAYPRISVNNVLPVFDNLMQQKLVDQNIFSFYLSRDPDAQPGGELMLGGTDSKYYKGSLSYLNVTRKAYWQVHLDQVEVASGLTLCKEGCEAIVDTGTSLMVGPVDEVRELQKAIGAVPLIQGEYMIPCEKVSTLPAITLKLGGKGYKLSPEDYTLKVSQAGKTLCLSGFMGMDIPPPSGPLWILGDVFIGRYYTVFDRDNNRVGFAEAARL
# Protocol: as §1, §2, §3
# T1 sequence (P56817 46-457 limits assumed): as the sequence (P56818 46-457 limits assumed) above, with S6P, I162V, I165L, T180S, A182V, V340I, A393L counted along it
smiles,measurement,setting,value
"C[C@@H](NC(=O)c1cc(C(=O)N[C@@H](Cc2ccccc2)[C@H](O)CNC2CC2)cc(N(C)S(=O)(=O)CCCNC(=O)c2ccc(C(=O)O)c(-c3c4ccc(=N)c(S(=O)(=O)O)c-4oc4c(S(=O)(=O)O)c(N)ccc34)c2)c1)c1ccccc1 [2-(6-Amino-3-iminio-4,5-disulfo-3H-xanthen-9-yl)-4-((3-(N-(3-(((2S,3R)-4-(cyclopropylamino)-3-hydroxy-1-phenylbutan-2-yl)carbamoyl)-5-(((R)-1-phenylethyl)carbamoyl)phenyl)-N-methylsulfamoyl)propyl)carbamoyl)benzoate]",increase of potency of the pIC50 in a cell-free assay vs parent C3,[1]; compared with unconjugated C3,10 fold
same,IC50,"[1]; logistic fit, n = 3 for each compound, read-out: pIC50 (negative logarithm of the half-inhibitory concentration) (converted)",1.86 nM
same,staining of BACE1 D289N,[2],no appreciable fluorescence
same,Kd,[3],1000 nM
same,"fluorescence reading, single replicates","[3]; BACE1 concentration 0.305 (unit not given; 0.3–5000 nM), triplicate",995.235 and 994.451 and 995.188
same,"fluorescence reading, single replicates","[3]; BACE1 concentration 0.61, triplicate",995.092 and 995.228 and 995.025
same,"fluorescence reading, single replicates","[3]; BACE1 concentration 1.221, triplicate",995.123 and 995.217 and 995.055
same,"fluorescence reading, single replicates","[3]; BACE1 concentration 2.441, triplicate",994.777 and 994.504 and 994.766
same,"fluorescence reading, single replicates","[3]; BACE1 concentration 4.883, triplicate",994.407 and 994.774 and 995.083
same,"fluorescence reading, single replicates","[3]; BACE1 concentration 9.766, triplicate",995.092 and 994.263 and 994.945
same,"fluorescence reading, single replicates","[3]; BACE1 concentration 19.531, triplicate",994.925 and 994.824 and 995.417
same,"fluorescence reading, single replicates","[3]; BACE1 concentration 39.062, triplicate",994.869 and 994.87 and 995.275
same,"fluorescence reading, single replicates","[3]; BACE1 concentration 78.125, triplicate",995.397 and 995.08 and 995.109
same,"fluorescence reading, single replicates","[3]; BACE1 concentration 156.25, triplicate",995.324 and 994.996 and 995.206
same,"fluorescence reading, single replicates","[3]; BACE1 concentration 312.5, triplicate",995.935 and 995.418 and 995.988
same,"fluorescence reading, single replicates","[3]; BACE1 concentration 625, triplicate",996.951 and 996.59 and 996.649
same,"fluorescence reading, single replicates","[3]; BACE1 concentration 1250, triplicate",999.327 and 998.59 and 999.026
same,"fluorescence reading, single replicates","[3]; BACE1 concentration 2500, triplicate",1002.784 and 1002.705 and 1002.138
same,"fluorescence reading, single replicates","[3]; BACE1 concentration 5000, triplicate",1000.96 and 1001.179 and 1001.396
same,diffusion time constant of free probe,[4],35 ± 3 μs
same,increase of fluorescent output in presence of Expi293F cells,[5],+25%
C[C@@H](NC(=O)c1cc(C(=O)N[C@@H](Cc2ccccc2)[C@H](O)CNC2CC2)cc(N(C)S(=O)(=O)CCCNC(=O)CCCCCC2(C)C(/C=C/C=C/C=C3/N(CCCS(=O)(=O)O)c4ccc(S(=O)(=O)O)cc4C3(C)C)=[N+](CCCS(=O)(=O)[O-])c3ccc(S(=O)(=O)O)cc32)c1)c1ccccc1 (stereo partly shown),impairment of affinity to the catalytic center by dye attachment,[1]; compared with unconjugated C3,10 fold
same,pIC50 (negative logarithm of the half-inhibitory concentration),"[1]; logistic fit, n = 3 for each compound",6.53 (95% CI: 6.05–7.05)
same,staining of BACE1 D289N,[2],not labeled
same,staining of BACE2,[6],not labeled
same,staining of Cathepsin D,[7],not labeled
same,diffusion time constant of free probe,[4],53 ± 18 μs
same,increase of fluorescent output in presence of Expi293F cells,[5],+8%
